Experimental data reported in patent US12428433B2, “Fluorine-containing heterocyclic derivatives with macrocyclic structure and use thereof” (ScinnoHub Pharmaceutical Co., Ltd, priority 2019, dated 2025).
Read-outs that look alike come from different tables or passages of the source.

Tests used:
[1] = Stability test in liver microsomes, mouse; type: in vitro ADME; conditions: for half-life at 1 μM: 0.5 mg/mL
Experimental: (§1) A stability of the compound of the present application in liver microsomes of human, rat and mouse was measured.
(§2) 3.1 A buffer and a liver microsome were prepared into an incubation solution according to the following table:
(§3) 3.2 The following two experiments were carried out respectively: a) incubation system added with coenzyme factor NADPH: 25 μL of NADPH (10 mM) was added into an incubation solution (mainly comprising a liver microsome and a phosphate buffer), so that final concentrations of the liver microsome and the NADPH were 0.5 mg/mL and […] respectively; and b) incubation system without coenzyme factor NADPH: 25 μL of phosphate buffer (100 mM) was added into the incubation solution, so that the final concentration of the liver microsome was 0.5 mg/mL. The incubation systems above were preheated at 37° C. for 10 minutes respectively.
(§4) 3.3 2.5 μL of positive control compound or a tested compound solution (100 μM) was added into the incubation systems described in “step 3.2” above respectively for reaction, and the positive control compound was verapamil (purchased from Sigma), so that a final concentration of the tested compound of the present application or the positive control compound was 1 μM. The incubation solution added with the compound was incubated in water at 37° C. in batches.
(§5) 3.4 30 μL of aliquot was taken from a reaction solution after 0.5 minute, 5 minutes, 15 minutes, 30 minutes and 45 minutes respectively, and the reaction was terminated by adding 5 times volume of cold acetonitrile containing 200 nM caffeine and 100 nM tolbutamide. The aliquot was centrifuged at a gravity acceleration of 3,220 g for 40 minutes, and 100 μL of supernatant was mixed with 100 μL of ultrapure water, and then used for LC-MS/MS analysis.
(§6) A peak area was determined by an extracted ion chromatogram. A slope value k was determined by linear regression of a remaining percentage of a parent drug relative to […] an incubation time curve.
(§7) In-vitro half-life periods (t1/2) were respectively calculated and determined according to the slope value, and an average value of the in-vitro half-life periods was converted into an in-vitro intrinsic clearance rate (CLint, represented by μL/min/mg protein).

[2] = In-vivo pharmacokinetic study on SD rats, intravenous and oral; conditions: rat, plasma; for AUC(0-t): read-out: Area under curve AUC(0-t); for Cmax: read-out: Concentration to peak Cmax; for half-life: read-out: Half-life period t1/2 (converted); for bioavailability: read-out: Bioavailability F %
Experimental: Species: SD rats, SPF level. Source: the animals were transferred from the animal repository (999M-017) of the experimental institution of Shanghai Sippe-Bk Lab Animal Co., Ltd. Quantity: 3 rats for each formulation.
2.1 An appropriate amount of test samples were accurately weighed, added to a final volume of 5% DMSO, 10% polyethylene glycol-15 hydroxystearate and 85% normal saline, and fully mixed by vortex or ultrasound to obtain 0.2 mg/mL administration solution for intravenous administration.
2.2 An appropriate amount of test samples were accurately weighed, added to a final volume of 5% DMSO, 10% polyethylene glycol-15 hydroxystearate and 85% normal saline, and fully mixed by vortex or ultrasound to obtain 0.5 mg/mL administration solution for oral and intragastric administration.
Weighing was carried out before administration, and the dosage was calculated according to the weight. Intravenous administration, or oral intragastric administration was carried out.
The blood sampling was carried out before administration and 0.083 hour, 0.25 hour, 0.5 hour, 1 hour, 2 hours, 4 hours, 6 hours, 8 hours, and 24 hours after administration.
The blood sampling was carried out through a jugular vein or other suitable modes, and about 0.20 mL of each sample was collected. Heparin sodium was used for anticoagulation, the collected blood samples were placed on ice, and plasma was centrifuged within 2 hours (the centrifugation was carried out by a centrifugal force of 6,800 g for 6 minutes at 2° C. to 8° C.). The collected plasma samples were stored in a refrigerator at −80° C. before analysis, and the remaining plasma samples after analysis were continuously stored in the refrigerator at −80° C. for temporary storage.
A plasma concentration of a test subject was detected, a plasma concentration-time curve was drawn, and BLQs were all recorded as 0. […] According to blood concentration data at different time points, the pharmacokinetic parameters such as AUC(0-t), T1/2 and Cmax were calculated by WinNonlin.

TRKa = TRKa (Homo sapiens (Human), UniProt P04629); test: Kinase inhibitory activity (Caliper mobility shift), TRKa; type: biochemical
Sequence of TRKa (P04629 33-796): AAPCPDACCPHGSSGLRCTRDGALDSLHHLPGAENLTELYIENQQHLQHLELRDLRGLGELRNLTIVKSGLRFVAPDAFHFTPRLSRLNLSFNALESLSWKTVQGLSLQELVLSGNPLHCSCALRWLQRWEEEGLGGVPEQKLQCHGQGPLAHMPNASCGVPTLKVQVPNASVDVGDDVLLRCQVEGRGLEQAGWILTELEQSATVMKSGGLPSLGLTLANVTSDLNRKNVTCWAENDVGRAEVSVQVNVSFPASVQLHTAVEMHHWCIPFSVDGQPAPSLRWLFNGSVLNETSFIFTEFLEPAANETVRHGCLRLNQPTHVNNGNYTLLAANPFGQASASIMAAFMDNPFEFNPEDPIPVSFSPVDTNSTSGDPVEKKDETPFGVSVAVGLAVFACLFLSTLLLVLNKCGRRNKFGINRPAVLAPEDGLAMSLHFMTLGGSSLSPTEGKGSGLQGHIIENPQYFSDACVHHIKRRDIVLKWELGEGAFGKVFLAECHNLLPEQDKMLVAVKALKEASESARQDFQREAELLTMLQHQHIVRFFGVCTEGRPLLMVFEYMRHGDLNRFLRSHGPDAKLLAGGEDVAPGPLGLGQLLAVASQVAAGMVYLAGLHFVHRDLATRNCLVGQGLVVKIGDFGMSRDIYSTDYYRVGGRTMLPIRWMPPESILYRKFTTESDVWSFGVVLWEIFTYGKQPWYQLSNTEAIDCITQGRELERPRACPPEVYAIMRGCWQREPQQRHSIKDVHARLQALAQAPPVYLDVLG
Experimental: […] (Shanghai) Co., Ltd. was commissioned to complete the testing example. […] 3.1 A tested compound was accurately weighed and dissolved in 100% DMSO to prepare into a 10 mM solution. […] 3.2.3 A kinase solution of 2.5 times final concentration was prepared with 1×kinase buffer. […] 3.2.5 The reaction plate was shaken and mixed evenly, and then incubated at room temperature for 10 minutes. 3.2.6 Mixed solutions of ATP and kinase substrate 22 of 5 times and 3 times final concentrations were prepared with 1×kinase buffer. 3.2.7 15 μL of mixed solution of ATP and substrate of 5 times or 3 times final concentration was added. 3.2.8 The 384-well plate was centrifuged at 1,000 rpm for 30 seconds, shaken and mixed evenly, and then incubated at room temperature for corresponding time. 3.2.9 The kinase reaction was terminated. 3.2.10 A conversion rate was read by the microplate reader Caliper EZ Reader. Calculation Formula Inhibition rate %=(conversion rate % maximum-conversion rate % sample)/(conversion rate % maximum-conversion rate % minimum)×100 wherein the conversion rate % sample was: a reading number of a conversion rate of a sample; the conversion rate % minimum was: an average value of the negative control well, which represented a reading number of a conversion rate without an enzyme activity well; and the conversion rate % maximum was: an average value of a ratio of the positive control well, which represented a reading number of a conversion rate without a compound inhibition well.

[3] = Stability test in liver microsomes, human; type: in vitro ADME; conditions: for half-life at 1 μM: 0.5 mg/mL
Experimental: as §1, §2, §3, §4, §5, §6, §7

[4] = Stability test in liver microsomes, rat; type: in vitro ADME; conditions: for half-life at 1 μM: 0.5 mg/mL
Experimental: as §1, §2, §3, §4, §5, §6, §7

microsomal CLint at 1 μM [1] | half-life at 1 μM [1] | % Remaining(45 min) [1] | AUC(0-t) ([2]; IV @ 1 mg/kg) | Cmax ([2]; IV @ 1 mg/kg) | half-life ([2]; IV @ 1 mg/kg) | AUC(0-t) ([2]; PO @ 5 mg/kg) | bioavailability ([2]; PO @ 5 mg/kg) | Cmax ([2]; PO @ 5 mg/kg) | half-life ([2]; PO @ 5 mg/kg) | IC50 (TRKa) | microsomal CLint at 1 μM [3] | half-life at 1 μM [3] | % Remaining(45 min) [3] | microsomal CLint at 1 μM [4] | half-life at 1 μM [4] | % Remaining(45 min) [4] | SMILES
78.6 µL/min/mg | 17.6 min | 16.90% | 0.605 µg·h/mL | 1.16 µM | 27 min | 2.27 µg·h/mL | 75.1% | 0.932 µM | 40.8 min | 0.39 nM | 92.3 µL/min/mg | 15 min | 12.43% | 123 µL/min/mg | 11.3 min | 9.03% | O=C1N[C@H]2C[C@H](C2)Oc2ncc(F)cc2[C@H]2CCCN2c2ccn3ncc1c3n2 (stereo in doubt) [Positive control 1, reference compound]
32.1 µL/min/mg | 43.2 min | 39.49% | 1.48 µg·h/mL | 0.573 µM | 300 min | 8.77 µg·h/mL | 119% | 1.3 µM | 181 min | 0.36 nM | 11.1 µL/min/mg | 128 min | 69.89% | 22.8 µL/min/mg | 60.8 min | 51.22% | C[C@H]1Nc2nc3c(cnn3cc2F)C(=O)N[C@H]2C[C@H](C2)Oc2ncc(F)cc21 [Example 3, (3^1S,3^3S,6^3E,6^4E,8R)-1^5,6^6-difluoro-8-methyl-2-oxo-4,7-diaza-6(3,5)-pyrazolo[1,5-a]pyrimidine-1(2,3)-pyridine-3(1,3)-cyclobutylcyclooctane-5-one]
73.2 µL/min/mg | 18.9 min | 11.64% | 1.01 µg·h/mL | 0.781 µM | 272 min | 3.35 µg·h/mL | 66.3% | 0.633 µM | 180 min | 0.43 nM | 16.4 µL/min/mg | 84.8 min | 67.39% | 30 µL/min/mg | 46.3 min | 40.95% | C[C@H]1Nc2ccn3ncc(c3n2)C(=O)N[C@H]2C[C@H](C2)Oc2ncc(F)cc21 [Positive control 2, reference compound]

SMILES | microsomal CLint at 1 μM [1] | half-life at 1 μM [1] | % Remaining(45 min) [1] | AUC(0-t) ([2]; IV @ 1 mg/kg) | Cmax ([2]; IV @ 1 mg/kg) | half-life ([2]; IV @ 1 mg/kg) | AUC(0-t) ([2]; PO @ 5 mg/kg) | bioavailability ([2]; PO @ 5 mg/kg) | Cmax ([2]; PO @ 5 mg/kg) | half-life ([2]; PO @ 5 mg/kg) | IC50 (TRKa) | microsomal CLint at 1 μM [3] | half-life at 1 μM [3] | % Remaining(45 min) [3] | microsomal CLint at 1 μM [4] | half-life at 1 μM [4] | % Remaining(45 min) [4]
O=C1N[C@H]2C[C@H](C2)Oc2ncc(F)cc2[C@H]2CCCN2c2nc3c1cnn3cc2F [Example 2, ((1^3E,1^4E,2^2R,5^1S,5^3S)-1^6,3^5-difluoro-4-oxa-6-aza-1(5,3)-pyrazolo[1,5-a]pyrimidine-3(3,2)-pyridine-2(1,2)-pyrrolidine-5(1,3)-cyclobutancycloheptan-7-one] | 106 µL/min/mg | 13 min | 9.22% | 0.422 µg·h/mL | 0.875 µM | 19.8 min | 1.5 µg·h/mL | 70.9% | 0.527 µM | 33 min | – | 86 µL/min/mg | 16.1 min | 14.38% | 214 µL/min/mg | 6.5 min | 2.37%
